Experimental data from patent publication US4010264A, “7-[3-Substituted isoxazol-5-yl]-acetamido-cephalosporanic acids and their anti-bacterial use” (Koninklijke Nederlandsche Gist-en Spiritusfabriek N.V., priority 1970, dated 1977).
≈ marks a conversion by molar mass, not a printed value. Counter-ions that a name gives are not always drawn. Like-named read-outs stand apart in the source and are kept apart here.

What was measured:
[1] = tested on: Pasteurella multocida A723; assay: MIC, agar serial dilution test; format: cell-based; details: Pasteurella multocida A723; 24 hours at 37° C; read-out: MIC
[2] = tested on: Staphylococcus aureus L160a (penicillinase-producing); assay: MIC, agar serial dilution test; details: 24 h
in vivo = details: mouse, ip
Brucella melitensis A488 = assay: microbe, parasite or virus in culture; format: cell-based; details: A488, 24 h
[3] = tested on: Staphylococcus aureus A55; assay: MIC, agar serial dilution test; format: cell-based; details: Staphylococcus aureus A55; 24 hours at 37° C; read-out: MIC
[4] = tested on: Staphylococcus aureus A321; assay: MIC, agar serial dilution test; format: cell-based; details: Staphylococcus aureus A321; 24 hours at 37° C; read-out: MIC
[5] = tested on: Streptococcus haemolyticus A266; assay: MIC, agar serial dilution test; format: cell-based; details: Streptococcus haemolyticus A266; 24 hours at 37° C; read-out: MIC
[6] = tested on: Bacillus subtilis ATCC 6633; assay: MIC, agar serial dilution test; format: cell-based; details: ATCC6633; Bacillus subtilis ATCC 6633; 24 hours at 37° C; read-out: MIC
[7] = tested on: Staphylococcus aureus A355 (penicillinase-producing); assay: MIC, agar serial dilution test; details: 24 h
[8] = secretion of compound in urine after intramuscular administration in rabbits; format: in vivo, rabbits (Nieuw Zeelander); details: rabbit, im, 50 mg/kg intramuscular, average, read-out: Secretion of compound in urine in % of the administered dose
Method: (§1) c. […] The rabbits were provided with "Cunicon" and water ad libitum. Each test group consisted of 3 rabbits. The dose was 50 mg/kg using water as the vehicle. […] The contents of the compound in the samples were determined microbiologically (only microbiologically detected amounts, i.e. anti-bacterially active concentrations only have been indicated).

Escherichia coli 65161 = assay: protection test in mice, Escherichia coli; format: in vivo, female mice (Swiss SPF)
[9] = tested on: Klebsiella pneumoniae A809; assay: MIC, agar serial dilution test; format: cell-based; details: Klebsiella pneumoniae A809; 24 hours at 37° C; read-out: MIC
[10] = tested on: Streptococcus faecalis L 80; assay: MIC, agar serial dilution test; format: cell-based; details: Enterococcus faecalis
[11] = blood (serum) contents after intramuscular administration in rabbits; format: in vivo, rabbits (Nieuw Zeelander); details: rabbit, im, 50 mg/kg intramuscular, average, read-out: Serum level
Method: as §1

[12] = tested on: Diplococcus pneumoniae L 54; assay: MIC, agar serial dilution test; format: cell-based; details: Streptococcus pneumoniae, L54; Diplococcus pneumoniae L 54; 24 hours at 37° C; read-out: MIC
[13] = percentages of bound serum by ultrafiltration and dialysis; format: in vitro ADME; details: read-out: percentage of bound serum (converted)
[14] = tested on: Staphylococcus aureus A 2001; assay: protection test in mice, Staphylococcus aureus
[15] = tested on: Pseudomonas aeruginosa A 1058; assay: in vivo infection test in mice; details: A1058, in Mus musculus
[16] = tested on: Staphylococcus aureus A 321; assay: in vivo infection test in mice; details: A321, in Mus musculus
Proteus mirabilis O.T. = assay: in vivo infection test in mice; details: in Mus musculus
[17] = tested on: Staphylococcus aureus A 2000; assay: in vivo infection test in mice; details: A2000, in Mus musculus
[18] = tested on: Staphylococcus aureus A 2001; assay: in vivo infection test in mice; details: A2001, in Mus musculus
[19] = tested on: Salmonella typhi murium R 172; assay: in vivo infection test in mice; details: Salmonella enterica, in Mus musculus
[20] = L80, Streptococcus faecalis L 80, 24 hours at 37° C, read-out: MIC

| Compound | MIC [1] | MIC [2] | MIC (Brucella melitensis A488) | MIC [3] | MIC [4] | MIC [5] | MIC [6] | MIC [7] | MIC [9] | MIC [10, 20] | MIC [12] | ED50 ([16]; ip) | ED50 ([16]; po) | ED50 (Proteus mirabilis O.T.; ip) | ED50 (Proteus mirabilis O.T.; po) | ED50 ([17]; ip) | ED50 ([18]; ip) | ED50 ([18]; po) | ED50 ([18]; sc) | ED50 ([16]; sc) | other results |
| --- | --- | --- | --- | --- | --- | --- | --- | --- | --- | --- | --- | --- | --- | --- | --- | --- | --- | --- | --- | --- | --- |
| CC(=O)OCC1=C(C(=O)O)N2C(=O)C(NC(=O)Cc3cc(C)no3)C2SC1 (stereo not drawn) [Example XXII, 7-{[3-methyl-isoxazol-5-yl]acetamido}cephalosporanic acid] | 3 µg/mL (≈ 7.59 µM) | 1 µg/mL (≈ 2.53 µM) | 12.5 µg/mL (≈ 31.6 µM) | 0.5 µg/mL (≈ 1.26 µM) | 0.5 µg/mL (≈ 1.26 µM) | 0.12 µg/mL (≈ 0.303 µM) | 0.06 µg/mL (≈ 0.152 µM) | 1 µg/mL (≈ 2.53 µM) | 3 µg/mL (≈ 7.59 µM) | 25 µg/mL (≈ 63.2 µM) | 0.5 µg/mL (≈ 1.26 µM) | – | – | – | – | – | – | – | – | – | LD50 (in vivo): > 8000 mg/kg; dose excreted at 6 h ([8]; after 6 hrs.): 41.4%; dose excreted at 27 h ([8]; after 27 hrs.): 46.9%; ED50 (Escherichia coli 65161; ip, 168 h, Escherichia coli 65161 i.p., method of administration intraperitoneal): 100 mg/kg; Potency Ratio (Escherichia coli 65161; vs Cephalotin, E. coli 65161, intraperitoneal, limits (0.52-2.53) printed): 1.15; concentration at 0.5 h ([11]; after 1/2 hr.): 45000 ng/mL; concentration at 0.25 h ([11]; after 1/4 hr.): 57500 ng/mL; concentration at 1 h ([11]; after 1 hr.): 12300 ng/mL; concentration at 2 h ([11]; after 2 hrs.): 1700 ng/mL; concentration at 4 h ([11]; after 4 hrs.): < 1000 ng/mL; fraction unbound ([13]; dialysis): 0.72; fraction unbound ([13]; ultrafiltration): 0.67; ED50 ([14]; Staphylococcus aureus, A2001, in Mus musculus, sc, 168 h): 23 mg/kg; Potency Ratio ([14]; vs Cephalotin, S. aureus A 2001, subcutaneously, limits (0.73-4.92) printed): 1.90 |
| Cc1cc(C)c(-c2cc(C(C)C(=O)NC3C(=O)N4C3SC(C)(C)C4C(=O)O)on2)c(C)c1 (stereo not drawn) [Example XI, Cyclohexylamine salt of 6{α-methyl-[3-(2,4,6-trimethyl)phenylisoxazol-5-yl]acetamido}penicillanic acid] | 50 µg/mL | 12.5 µg/mL | 3 µg/mL | 0.12 µg/mL | 0.06 µg/mL | 0.007 µg/mL | 0.06 µg/mL | 12.5 µg/mL | 100 µg/mL | 1.5 µg/mL | 0.12 µg/mL | > 21.5 mg/kg | > 100 mg/kg | > 300 mg/kg | > 300 mg/kg | – | – | – | – | – | ED50 ([15]; po): > 300 mg/kg |
| CC1(C)SC2C(NC(=O)Cc3cc(-c4c(Cl)cccc4Cl)no3)C(=O)N2C1C(=O)O (stereo not drawn) [Example I, Sodium salt of 6-{[3-(2,6-dichlorophenyl)isoxazol-5-yl]acetamido}-penicillanic acid] | 2 µg/mL | 1 µg/mL | 0.5 µg/mL | 0.01 µg/mL | 0.015 µg/mL | 0.007 µg/mL | 0.007 µg/mL | 3 µg/mL | 100 µg/mL | 50 µg/mL | 0.25 µg/mL | 10.8 mg/kg | 126 mg/kg | – | – | 133 mg/kg | > 215 mg/kg | > 215 mg/kg | > 215 mg/kg | 36.9 mg/kg | ED50 ([17]; po): > 215 mg/kg; ED50 ([17]; sc): > 215 mg/kg; ED50 ([19]; ip): > 215 mg/kg; ED50 ([15]; ip): > 215 mg/kg |
| CC1(C)S[C@@H]2C(NC(=O)Cc3onc(-c4c(Cl)cccc4Cl)c3C(=O)O)C(=O)N2[C@H]1C(=O)O (stereo partly drawn) [Example V, 6-{[3-(2,6-dichlorophenyl)-4-carboxyisoxazol-5-yl]acetamido}penicillanic acid] | 1.5 µg/mL (≈ 2.92 µM) | 3 µg/mL (≈ 5.83 µM) | 25 µg/mL (≈ 48.6 µM) | 1 µg/mL (≈ 1.94 µM) | 1 µg/mL (≈ 1.94 µM) | 0.5 µg/mL (≈ 0.972 µM) | 0.5 µg/mL (≈ 0.972 µM) | 12.5 µg/mL (≈ 24.3 µM) | > 100 µg/mL | 25 µg/mL (≈ 48.6 µM) | 6 µg/mL (≈ 11.7 µM) | < 100 mg/kg | > 215 mg/kg | > 300 mg/kg | > 300 mg/kg | – | – | – | – | – | – |
| CC1=C(C(=O)O)N2C(=O)C(NC(=O)Cc3cc(-c4c(Cl)cccc4Cl)no3)C2SC1 (stereo not drawn) [Example IV, Sodium salt of 7{[3-(2,6-dichlorophenyl)isoxazol-5-yl]acetamido}desacetoxycephalosporanicacid] | 6 µg/mL | 1.5 µg/mL | 12.5 µg/mL | 0.75 µg/mL | 0.5 µg/mL | 0.5 µg/mL | 1 µg/mL | 3 µg/mL | > 100 µg/mL | – | 0.75 µg/mL | 23.3 mg/kg | 50.1 mg/kg | > 215 mg/kg | – | 19.6 mg/kg | 23.3 mg/kg | ~200 mg/kg | > 215 mg/kg | 31.6 mg/kg | ED50 ([17]; po): > 215 mg/kg; ED50 ([17]; sc): > 215 mg/kg; MIC ([10]; L80, 24 h): 12.5 µg/mL; ED50 ([19]; ip): > 215 mg/kg; ED50 ([15]; ip): > 215 mg/kg |
| CC(=O)OCC1=C(C(=O)O)N2C(=O)C(NC(=O)Cc3cc(-c4c(C)cc(C)cc4C)no3)C2SC1 (stereo not drawn) [VII, Sodium salt of 7-{[3-(2,4,6-trimethyl)phenylisoxazol-5-yl]acetamido}cephalosporanic acid] | 50 µg/mL | 0.12 µg/mL | 12.5 µg/mL | 0.06 µg/mL | 0.06 µg/mL | 0.03 µg/mL | 0.015 µg/mL | 0.25 µg/mL | 50 µg/mL | 1 µg/mL | 0.03 µg/mL | 3.8 mg/kg | 70 mg/kg | > 215 mg/kg | ~215 mg/kg | – | 17.1 mg/kg | > 215 mg/kg | 140 mg/kg | 18.5 mg/kg | ED50 ([19]; ip): > 215 mg/kg; ED50 ([19]; po): > 215 mg/kg; ED50 ([15]; ip): > 215 mg/kg; ED50 ([15]; po): > 215 mg/kg |
| CCC(Oc1ccccc1)C(=O)N[C@@H]1C(=O)N2[C@@H]1SC(C)(C)[C@@H]2C(=O)O (stereo partly drawn) [Propicillin, reference compound] | – | – | – | – | – | – | – | – | – | – | – | – | 10.8 mg/kg | – | – | 88 mg/kg | 133 mg/kg | > 215 mg/kg | > 215 mg/kg | 2.33 mg/kg | ED50 ([17]; po): > 215 mg/kg; ED50 ([17]; sc): > 215 mg/kg |
| Cc1cc(C)c(-c2cc(C(Cl)C(=O)NC3C(=O)N4C3SC(C)(C)C4C(=O)O)on2)c(C)c1 (stereo not drawn) [Example IX, Cyclohexylamine salt of 6-{α-chloro-[3-(2,4,6-trimethyl)phenyl-isoxazol-5-yl]acetamido}penicillanic acid] | 25 µg/mL | 25 µg/mL | 25 µg/mL | 0.25 µg/mL | 0.25 µg/mL | 0.06 µg/mL | 0.12 µg/mL | 25 µg/mL | > 100 µg/mL | 1.5 µg/mL | 0.12 µg/mL | > 21.5 mg/kg | > 100 mg/kg | – | – | – | – | – | – | – | – |
| Cc1cc(CC(=O)NC2C(=O)N3[C@@H]2SC(C)(C)[C@@H]3C(=O)O)on1 (stereo partly drawn) [Example XXI, 6-{[3-methyl-isoxazol-5-yl]acetamido}penicillanic acid] | 1.5 µg/mL (≈ 4.42 µM) | 3 µg/mL (≈ 8.84 µM) | 3 µg/mL (≈ 8.84 µM) | 0.5 µg/mL (≈ 1.47 µM) | 0.25 µg/mL (≈ 0.737 µM) | 0.03 µg/mL (≈ 0.0884 µM) | 0.06 µg/mL (≈ 0.177 µM) | 6 µg/mL (≈ 17.7 µM) | > 100 µg/mL | 3 µg/mL (≈ 8.84 µM) | 1.5 µg/mL (≈ 4.42 µM) | – | – | – | – | – | – | – | – | – | – |
